Source: patent US7449447B2, “Peptidomimetic NS3-serine protease inhibitors of hepatitis C virus” (priority 2003, dated 2008)
*1 amine or outer side, *2 acyl side, *3 side chain or, on linkers, in order; H or OH if unused. Where a SMILES comes first, the peptide text is derived from it. [ ]: non-standard residue; d: D form. The star is where a group is joined. Pro(3R,4S-CMe2) = CC1(C)[C@@H]2[C@@H](C(=O)O)NC[C@@H]21; X1 = CN(C[C@@H](N*)C(C)(C)C)S(C)(=O)=O; Abu(4,4-F2) = N[C@@H](CC(F)F)C(=O)O; Phe(ol) = N[C@H](CO)Cc1ccccc1; Tle = CC(C)(C)[C@H](N)C(=O)O; CO = O=C([*:1])[*:2]

molecular target: T1, HCV NS3/NS4a serine protease (Hepatitis C virus genotype 1b, UniProt P26663); test: Spectrophotometric assay for HCV protease inhibitory activity (chromogenic ester substrates); format: biochemical, hepatitis C virus (strain 1b); conditions: Ki Rating, Table 2; single chain NS4A21-32-GSGS-NS3 3-181 protease, 30° C., pH 6.5
T1 construct: amino terminus of the NS3 protease domain (amino acids 3-181) with a tetrapeptide linker; made in house; host or cells: E. coli
How it was run: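 Single-chain NS4A(21-32)-GSGS-NS3(3-181) protease (genotype 1b) from E. coli was used at 1.3 nM in 25 mM MOPS pH 6.5 with 300 mM NaCl, 30 °C and 4% DMSO. Chromogenic ester substrate cleavage was followed as PAP release at 370 nm over 60 min. Ki was derived from vo/vi versus [I] plots assuming competitive inhibition.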

T1 sequence (P26663 1013-1207, looked up, natural form): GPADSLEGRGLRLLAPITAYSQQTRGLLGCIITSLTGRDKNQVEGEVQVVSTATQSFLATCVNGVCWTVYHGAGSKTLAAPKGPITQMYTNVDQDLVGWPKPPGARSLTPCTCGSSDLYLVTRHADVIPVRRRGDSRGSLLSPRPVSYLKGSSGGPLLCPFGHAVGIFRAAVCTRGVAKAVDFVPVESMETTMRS

| Compound | Ki |
| --- | --- |
| CC(C)[C@H](NC(=O)N[C@H](C(=O)N1C[C@H]2[C@@H]([C@H]1C(=O)NC(CC(F)F)C(=O)NCCc1ccc(C(=O)O)cc1)C2(C)C)C(C)(C)C)C(=O)OC(C)(C)C (stereo partly shown) [Example 129] | 100 to 500 nM |
| CC1(NC(=O)N[C@H](C(=O)N2C[C@H]3[C@@H]([C@H]2C(=O)NC(CC(F)F)C(=O)O)C3(C)C)C(C)(C)C)CCCCC1 (stereo partly shown) [Example 156] | > 500 nM |
| COC(=O)c1ccc(CCNC(=O)[C@H](CC(F)F)NC(=O)[C@@H]2[C@@H]3[C@H](CN2C(=O)[C@@H](NC(=O)N[C@H](C(=O)OCC2CC2)C(C)(C)C)C(C)(C)C)C3(C)C)cc1 [Example 143] | 100 to 500 nM |
| CC1(NC(=O)N[C@H](C(=O)N2C[C@H]3[C@@H]([C@H]2C(=O)N[C@@H](CC(F)F)C(=O)NCCC(=O)O)C3(C)C)C(C)(C)C)CCCCC1 [Example 165] | > 500 nM |
| CC1(C)C[C@H]2[C@H](CN(C(=O)[C@@H](NC(=O)OCc3ccccc3)C3CCCCC3)[C@@H]2C(=O)N[C@@H](CC(F)F)C(=O)O)O1 [Example 161] | > 500 nM |
| CC(C)(C)OC(=O)[C@@H](NC(=O)N[C@H](C(=O)N1C[C@H]2[C@@H]([C@H]1C(=O)N[C@@H](CC(F)F)C(=O)NCCc1ccc(C(=O)O)cc1)C2(C)C)C(C)(C)C)C(C)(C)C [Example 127] | 100 to 500 nM |
| COC(=O)c1ccc(CCNC(=O)[C@H](CC(F)F)NC(=O)[C@@H]2[C@H]3CC(C)(C)O[C@H]3CN2C(=O)[C@@H](NC(=O)N[C@H](C(=O)OC(C)(C)C)C(C)C)C2CCCCC2)cc1 [Example 154] | > 500 nM |
| COC(=O)c1ccc(CCNC(=O)C(CC(F)F)NC(=O)[C@@H]2[C@@H]3[C@H](CN2C(=O)[C@@H](NC(=O)N[C@H](C(=O)OC(C)(C)C)C(C)C)C(C)(C)C)C3(C)C)cc1 (stereo partly shown) [Example 149] | > 500 nM |
| CC(C)(C)OC(=O)N[C@H](C(=O)N1C[C@H]2[C@@H]([C@H]1C(=O)NC(CC(F)F)C(=O)NCCc1ccccc1)C2(C)C)C(C)(C)C (stereo partly shown) [Example 151] | > 500 nM |

same assay, conditions: Ki, Table 1; single chain NS4A21-32-GSGS-NS3 3-181 protease, 30° C., pH 6.5

| Compound | Ki |
| --- | --- |
| COC(=O)c1ccc(CCNC(=O)[C@H](CC(F)F)NC(=O)[C@@H]2C3C(CN2C(=O)[C@@H](NC(=O)N[C@H](CN(C)S(C)(=O)=O)C(C)(C)C)C2CCCCC2)C3(C)C)cc1 (stereo partly shown) [Example 101] | 11 nM |
| COC(=O)c1ccc(CCNC(=O)[C@H](CC(F)F)NC(=O)[C@@H]2[C@@H]3[C@H](CN2C(=O)[C@@H](NC(=O)N[C@H](CN(C)S(=O)(=O)c2ccccc2)C(C)C)C(C)(C)C)C3(C)C)cc1 [Example 116] | 100 nM |

same assay, conditions: Ki, Table 3; rating; single chain NS4A21-32-GSGS-NS3 3-181 protease, 30° C., pH 6.5

| Compound | Ki |
| --- | --- |
| CN(C[C@@H](NC(=O)N[C@H](C(=O)N1C[C@H]2[C@@H]([C@H]1C(=O)N[C@@H](CC(F)F)C(=O)NCCC#N)C2(C)C)C(C)(C)C)C(C)(C)C)S(C)(=O)=O [Example 204] | > 500 nM |
| CN(C[C@@H](NC(=O)N[C@H](C(=O)N1C[C@H]2[C@@H]([C@H]1C(=O)N[C@@H](CC(F)F)C(=O)NC1CCc3ccccc31)C2(C)C)C(C)(C)C)C(C)(C)C)S(C)(=O)=O (stereo partly shown) [Example 217] | > 500 nM |
| COc1ccc(CCNC(=O)[C@H](CC(F)F)NC(=O)[C@@H]2[C@@H]3[C@H](CN2C(=O)[C@@H](NC(=O)N[C@H](CN(C)S(C)(=O)=O)C(C)(C)C)C(C)(C)C)C3(C)C)cc1Br [Example 292] | < 100 nM |
| CC(O)CNC(=O)[C@H](CC(F)F)NC(=O)[C@@H]1[C@@H]2[C@H](CN1C(=O)[C@@H](NC(=O)N[C@H](CN(C)S(C)(=O)=O)C(C)(C)C)C(C)(C)C)C2(C)C (stereo partly shown) [Example 231] | > 500 nM |
| CC(NC(=O)[C@H](CC(F)F)NC(=O)[C@@H]1[C@@H]2[C@H](CN1C(=O)[C@@H](NC(=O)N[C@H](CN(C)S(C)(=O)=O)C(C)(C)C)C(C)(C)C)C2(C)C)c1ccccc1 (stereo partly shown) [Example 215] | > 500 nM |
| CN(C[C@@H](NC(=O)N[C@H](C(=O)N1C[C@H]2[C@@H]([C@H]1C(=O)N[C@@H](CC(F)F)C(=O)NC1CCN(Cc3ccccc3)CC1)C2(C)C)C(C)(C)C)C(C)(C)C)S(C)(=O)=O [Example 243] | > 500 nM |
| CN(C[C@@H](NC(=O)N[C@H](C(=O)N1C[C@H]2[C@@H]([C@H]1C(=O)N[C@@H](CC(F)F)C(=O)NCCc1ccc(F)cc1)C2(C)C)C(C)(C)C)C(C)(C)C)S(C)(=O)=O [Example 265] | < 100 nM |
| CN(C[C@@H](NC(=O)N[C@H](C(=O)N1C[C@H]2[C@@H]([C@H]1C(=O)N[C@@H](CC(F)F)C(=O)NCCc1cccc(Cl)c1)C2(C)C)C(C)(C)C)C(C)(C)C)S(C)(=O)=O [Example 202] | < 100 nM |
| Cc1ccc(CCNC(=O)[C@H](CC(F)F)NC(=O)[C@@H]2[C@@H]3[C@H](CN2C(=O)[C@@H](NC(=O)N[C@H](CN(C)S(C)(=O)=O)C(C)(C)C)C(C)(C)C)C3(C)C)c(C)c1 [Example 266] | < 100 nM |
| CN(C[C@@H](NC(=O)N[C@H](C(=O)N1C[C@H]2[C@@H]([C@H]1C(=O)N[C@@H](CC(F)F)C(=O)NC1CC1)C2(C)C)C(C)(C)C)C(C)(C)C)S(C)(=O)=O [Example 203] | > 500 nM |
| CN(C[C@@H](NC(=O)N[C@H](C(=O)N1C[C@H]2[C@@H]([C@H]1C(=O)N[C@@H](CC(F)F)C(=O)NCc1cccs1)C2(C)C)C(C)(C)C)C(C)(C)C)S(C)(=O)=O [Example 212] | > 500 nM |
| CN(C[C@@H](NC(=O)N[C@H](C(=O)N1C[C@H]2[C@@H]([C@H]1C(=O)N[C@@H](CC(F)F)C(=O)NCC1CCCO1)C2(C)C)C(C)(C)C)C(C)(C)C)S(C)(=O)=O (stereo partly shown) [Example 210] | > 500 nM |
| CN(C[C@@H](NC(=O)N[C@H](C(=O)N1C[C@H]2[C@@H]([C@H]1C(=O)N[C@@H](CC(F)F)C(=O)NCCc1ccc(N)cc1)C2(C)C)C(C)(C)C)C(C)(C)C)S(C)(=O)=O [Example 262] | < 100 nM |
| COc1cc(CCNC(=O)[C@H](CC(F)F)NC(=O)[C@@H]2[C@@H]3[C@H](CN2C(=O)[C@@H](NC(=O)N[C@H](CN(C)S(C)(=O)=O)C(C)(C)C)C(C)(C)C)C3(C)C)cc(OC)c1 [Example 278] | 100 to 500 nM |
| CN(C[C@@H](NC(=O)N[C@H](C(=O)N1C[C@H]2[C@@H]([C@H]1C(=O)N[C@@H](CC(F)F)C(=O)NC1Cc3ccccc3C1)C2(C)C)C(C)(C)C)C(C)(C)C)S(C)(=O)=O [Example 218] | > 500 nM |
| CCOCCCNC(=O)[C@H](CC(F)F)NC(=O)[C@@H]1[C@@H]2[C@H](CN1C(=O)[C@@H](NC(=O)N[C@H](CN(C)S(C)(=O)=O)C(C)(C)C)C(C)(C)C)C2(C)C [Example 211] | > 500 nM |
| Cc1ccc(CCNC(=O)[C@H](CC(F)F)NC(=O)[C@@H]2[C@@H]3[C@H](CN2C(=O)[C@@H](NC(=O)N[C@H](CN(C)S(C)(=O)=O)C(C)(C)C)C(C)(C)C)C3(C)C)cc1 [Example 261] | < 100 nM |
| CN(C[C@@H](NC(=O)N[C@H](C(=O)N1C[C@H]2[C@@H]([C@H]1C(=O)N[C@@H](CC(F)F)C(=O)NCCN1CCOCC1)C2(C)C)C(C)(C)C)C(C)(C)C)S(C)(=O)=O [Example 240] | > 500 nM |
| CCc1ccc(CCNC(=O)[C@H](CC(F)F)NC(=O)[C@@H]2[C@@H]3[C@H](CN2C(=O)[C@@H](NC(=O)N[C@H](CN(C)S(C)(=O)=O)C(C)(C)C)C(C)(C)C)C3(C)C)cc1 [Example 268] | < 100 nM |
| CN(C[C@@H](NC(=O)N[C@H](C(=O)N1C[C@H]2[C@@H]([C@H]1C(=O)N[C@@H](CC(F)F)C(=O)N[C@H]1C[C@@H]1c1ccccc1)C2(C)C)C(C)(C)C)C(C)(C)C)S(C)(=O)=O [Example 293] | > 500 nM |
| COc1cc(CCNC(=O)[C@H](CC(F)F)NC(=O)[C@@H]2[C@@H]3[C@H](CN2C(=O)[C@@H](NC(=O)N[C@H](CN(C)S(C)(=O)=O)C(C)(C)C)C(C)(C)C)C3(C)C)cc(OC)c1O [Example 297] | 100 to 500 nM |
| CN(C[C@@H](NC(=O)N[C@H](C(=O)N1C[C@H]2[C@@H]([C@H]1C(=O)N[C@@H](CC(F)F)C(=O)N[C@H](CO)Cc1ccccc1)C2(C)C)C(C)(C)C)C(C)(C)C)S(C)(=O)=O [Example 249] ({X1-CO}-[Tle][Pro(3R,4S-CMe2)][Abu(4,4-F2)][Phe(ol)]) | > 500 nM |
| CN(C[C@@H](NC(=O)N[C@H](C(=O)N1C[C@H]2[C@@H]([C@H]1C(=O)N[C@@H](CC(F)F)C(=O)N1Cc3ccccc3C1)C2(C)C)C(C)(C)C)C(C)(C)C)S(C)(=O)=O [Example 301] | > 500 nM |
| CN(C[C@@H](NC(=O)N[C@H](C(=O)N1C[C@H]2[C@@H]([C@H]1C(=O)N[C@@H](CC(F)F)C(=O)NCCc1ccccc1)C2(C)C)C(C)(C)C)C(C)(C)C)S(C)(=O)=O [Example 258] | < 100 nM |
| CN(CCc1ccccc1)C(=O)[C@H](CC(F)F)NC(=O)[C@@H]1[C@@H]2[C@H](CN1C(=O)[C@@H](NC(=O)N[C@H](CN(C)S(C)(=O)=O)C(C)(C)C)C(C)(C)C)C2(C)C [Example 303] | > 500 nM |
| CN(C[C@@H](NC(=O)N[C@H](C(=O)N1C[C@H]2[C@@H]([C@H]1C(=O)N[C@@H](CC(F)F)C(=O)NCCCN1CCCC1=O)C2(C)C)C(C)(C)C)C(C)(C)C)S(C)(=O)=O [Example 223] | > 500 nM |
| CN(C[C@@H](NC(=O)N[C@H](C(=O)N1C[C@H]2[C@@H]([C@H]1C(=O)N[C@@H](CC(F)F)C(=O)NCCc1cccnc1)C2(C)C)C(C)(C)C)C(C)(C)C)S(C)(=O)=O [Example 236] | < 100 nM |
| CN(C[C@@H](NC(=O)N[C@H](C(=O)N1C[C@H]2[C@@H]([C@H]1C(=O)N[C@@H](CC(F)F)C(=O)NCCc1c[nH]cn1)C2(C)C)C(C)(C)C)C(C)(C)C)S(C)(=O)=O [Example 244] | > 500 nM |
| CN(C[C@@H](NC(=O)N[C@H](C(=O)N1C[C@H]2[C@@H]([C@H]1C(=O)N[C@@H](CC(F)F)C(=O)N[C@H]1CCCC[C@@H]1OCc1ccccc1)C2(C)C)C(C)(C)C)C(C)(C)C)S(C)(=O)=O [Example 255] | > 500 nM |
